{"source": "patent US11357782B2", "about": "“Treprostinil administration by inhalation” (priority 2006, dated 2022)", "key": {"[1]": {"tested_on": "patients with moderate to severe precapillary pulmonary hypertension", "assay": "Study i) randomized crossover study of inhaled treprostinil vs inhaled iloprost, right heart catheter", "assay_type": "in vivo, human", "details": "for area under the curve (AUC) of PVR decrease: mean±95% confidence interval", "procedure": "All inhalations were performed with the […]® ultrasonic nebulizer ([…], Germany). Study i) was a randomized, open-label, single-blind crossover study. […] Patient characteristics and hemodynamic as well as gas exchange parameters are outlined in Table 3. Each patient inhaled both iloprost and treprostinil on the same day during right heart catheter investigation; the drugs were administered consecutively with a one hour interval between the drug applications. One half of the study patients initially inhaled treprostinil and then inhaled iloprost (n=22), while the other half initially inhaled iloprost and then inhaled treprostinil (n=22). Patients were randomized to one of the two groups and blinded as to the study drugs. Drug effects were monitored for 60 minutes after each inhalation."}, "[2]": {"tested_on": "patients with severe pulmonary hypertension", "assay": "Study iii) reduction of inhalation time at fixed 15 μg dose, pulsed ultrasonic nebulizer", "procedure": "Study iii) was a randomized, open-label, single blind study. The primary objective was to explore the shortest possible inhalation time for a 15 μg dose of inhaled treprostinil. A total of 48 patients inhaled one dose of TRE during right heart catheter investigation. The drug was applied in 18, 9, 3, 2 or 1 breaths. The aerosol was generated by a pulsed ultrasonic nebulizer (OPTINEB®, Nebutec, Elsenfeld, Germany) in cycles consisting of 2 seconds aerosol production (pulse) and 4 seconds pause. The device included an opto-acoustical trigger for the patient to synchronize the inspiration to the end of the aerosol pulse, thereby providing exact dosage. The TRE dose of 15 μg was either generated during 18 cycles (OPTINEB® filled with 100 μg/ml TRE, n=6), 9 cycles (200 μg/ml TRE, n=6), 3 cycles (600 μg/ml TRE, n=21), 2 cycles (1000m/m1 TRE, n=7) or 1 cycle (2000 μg/ml TRE, n=8). Hemodynamics and gas exchange were recorded for 120-180 minutes."}, "[3]": {"assay": "Treprostinil plasma concentrations after single inhalation (study ii), LC-MS/MS", "details": "for Cmax: human, plasma, inhaled", "procedure": "Treprostinil plasma concentrations were assessed in study ii) at 10, 15, 30, 60 and 120 minutes after inhalation. Treprostinil quantification was done by Alta Analytical Laboratory (El Dorado Hills, Calif., USA) with a validated liquid chromatography atmospheric-pressure ionization tandem mass spectrometry as previously described Wade M., et al. J. Clin. Pharmacol. 2004; 44:503-9. Mixed venous blood was drawn at the depicted time points (FIG. 11) after inhalation, centrifuged and the plasma frozen at −80° C. until temperature controlled shipping on dry ice."}, "[4]": {"tested_on": "patients with severe pulmonary hypertension", "assay": "Study ii) placebo controlled dose escalation study of inhaled treprostinil, hemodynamics and tolerability", "details": "for maximal decrease of PVR to: 6 min inhalation", "protocol": "Study ii) was a randomized, open-label, single blind, placebo controlled study. […] A total number of 31 patients inhaled either placebo or treprostinil; each patient received one inhalation. […] Inhalation time was 6 minutes in all groups."}, "[5]": {"details": "metacresol-containing TRE solution"}, "[6]": {"details": "15 μg, 1 pulse, 2000 μg/ml, n=8"}, "[7]": {"details": "15 μg, 2 pulses, 1000 μg/ml, n=7"}, "[8]": {"details": "15 μg, 3 pulses, 600 μg/ml, n=21"}, "[9]": {"details": "15 μg, 9 pulses, 200 μg/ml, n=6"}, "[10]": {"details": "15 μg, 18 pulses, 100 μg/ml, n=6"}}, "note": "Entries after “also recorded” stand apart in the source; their conditions may differ.", "data": [{"smiles": "CCCCC[C@H](O)CC[C@@H]1[C@H]2Cc3cccc(OCC(=O)[O-])c3C[C@H]2C[C@H]1O.[Na+]", "note": "[TRE]", "values": [{"measurement": "area under the curve (AUC) of PVR decrease", "setting": "[1]; 7.5 μg inhaled in 6 minutes, start of inhalation until 60 min", "result": "−12.6±7.0", "unit": "%"}, {"measurement": "area under the curve (AUC) of PVR decrease", "setting": "[1]; 15 μg inhaled in 6 minutes, until 60 min", "result": "−13.3±3.2", "unit": "%"}, {"measurement": "area under the curve (AUC) of PVR decrease", "setting": "[1]; 15 TRE inhaled in 3 minutes, until 60 min", "result": "−13.6±4.3", "unit": "%"}, {"measurement": "PVR values after 60 min", "setting": "[1]; 60 min after inhalation", "result": "had not yet returned to baseline"}, {"measurement": "gas exchange", "setting": "[1]; after inhalation", "result": "did not affect gas exchange"}, {"measurement": "systemic arterial pressure (SAP)", "setting": "[1]; after inhalation", "result": "unaffected"}, {"measurement": "side effects (transient flush, headache)", "setting": "[1]; iloprost 7.5 μg, treprostinil 7.5-15 μg", "result": "not observed"}, {"measurement": "maximum effect on PVR", "setting": "[1]; iloprost vs treprostinil, pooled", "result": "comparable"}, {"measurement": "taste", "setting": "[1]; [5]", "result": "Bad taste was reported by most of the patients"}, {"measurement": "time to maximum effect on PVR after inhalation", "setting": "[1]; pooled n=44, mean±SEM, p<0.0001", "result": "18 ± 2", "unit": "min"}, {"measurement": "reported side effects", "setting": "[2]; 15 μg, 48 patients, cough n=6, headache n=2, jaw pain n=1", "result": "mild transient cough; also recorded: mild headache; also recorded: mild jaw pain"}, {"measurement": "cardiac output", "setting": "[2]; 15 μg, all groups", "result": "moderately increased"}, {"measurement": "systemic arterial pressure", "setting": "[2]; 15 μg, all groups", "result": "not significantly affected"}, {"measurement": "PAP reduced to", "setting": "[2]; [6]", "result": "88±5.4", "unit": "%"}, {"measurement": "PVR reduced to", "setting": "[2]; [6]", "result": "80.3±5.2", "unit": "%"}, {"measurement": "PAP reduced to", "setting": "[2]; [7]", "result": "86±4", "unit": "%"}, {"measurement": "PVR reduced to", "setting": "[2]; [7]", "result": "77.4±4.5", "unit": "%"}, {"measurement": "PAP reduced to", "setting": "[2]; [8]", "result": "81.1±4.1", "unit": "%"}, {"measurement": "PVR reduced to", "setting": "[2]; [8]", "result": "71.2±6.0", "unit": "%"}, {"measurement": "PAP reduced to", "setting": "[2]; [9]", "result": "84.2±4.1", "unit": "%"}, {"measurement": "PVR reduced to", "setting": "[2]; [9]", "result": "72.9±4.9", "unit": "%"}, {"measurement": "PAP reduced to", "setting": "[2]; [10]", "result": "84.2±4.5", "unit": "%"}, {"measurement": "PVR reduced to", "setting": "[2]; [10]", "result": "76.3±5.6", "unit": "%"}, {"measurement": "concentration safely utilized without considerable side effects", "setting": "[2]; metacresol-free TRE solution, modified OPTINEB", "result": "≤ 2000", "unit": "µg/mL"}, {"measurement": "duration of pulmonary vasodilation", "setting": "[2]; single breath of 2000 μg/ml, 15 μg, compared to placebo inhalation", "result": "> 3", "unit": "h"}, {"measurement": "time of peak plasma concentrations after inhalation", "setting": "[3]; 30-120 μg, 6 min inhalation", "result": "10 to 15", "unit": "min"}, {"measurement": "Cmax", "setting": "[3]; 30 ug", "result": "0.00065 ± 0.00028", "unit": "µg/mL"}, {"measurement": "Cmax", "setting": "[3]; 60 ug", "result": "0.00159 ± 0.00017", "unit": "µg/mL"}, {"measurement": "Cmax", "setting": "[3]; 90 ug", "result": 0.00174, "unit": "µg/mL"}, {"measurement": "Cmax", "setting": "[3]; 120 ug", "result": "0.00351 ± 0.00104", "unit": "µg/mL"}, {"measurement": "cardiac output increased to a maximum of", "setting": "[4]; 30 μg", "result": "106.8±3.2", "unit": "%"}, {"measurement": "side effects", "setting": "[4]; 30 μg TRE, n=1 each", "result": "flushing; also recorded: mild transient bronchoconstriction"}, {"measurement": "duration of hemodynamic changes", "setting": "[4]; 30 μg dose group, 3 hour observation period", "result": "had just returned to baseline within this period"}, {"measurement": "maximal decrease of PVR to", "setting": "[4]; 30 μg, n=8", "result": "76.5±4.7 % of baseline values"}, {"measurement": "cardiac output increased to a maximum of", "setting": "[4]; 60 μg", "result": "122.9±4.3", "unit": "%"}, {"measurement": "side effects", "setting": "[4]; 60 μg TRE, n=3", "result": "mild transient cough"}, {"measurement": "duration of pulmonary vasodilation", "setting": "[4]; 60 μg and 90 μg (and 120 μg) TRE doses, surpassing observation period", "result": "> 3", "unit": "h"}, {"measurement": "maximal decrease of PVR to", "setting": "[4]; 60 μg, n=6", "result": "73.7±5.8 % of baseline values"}, {"measurement": "cardiac output increased to a maximum of", "setting": "[4]; 90 μg", "result": "114.3±4.8", "unit": "%"}, {"measurement": "maximal decrease of PVR to", "setting": "[4]; 90 μg, n=6", "result": "73.3±4.3 % of baseline values"}, {"measurement": "cardiac output increased to a maximum of", "setting": "[4]; 120 μg TRE", "result": "111.3±3.9", "unit": "%"}, {"measurement": "arterial oxygen saturation", "setting": "[4]; 120 μg TRE, all 3 patients", "result": "significantly decreased"}, {"measurement": "side effects", "setting": "[4]; 120 μg TRE, n=1 each", "result": "moderate bronchoconstriction; also recorded: severe headache"}, {"measurement": "maximal decrease of PVR to", "setting": "[4]; 120 μg, n=3", "result": "65.4±4.1 % of baseline values"}, {"measurement": "gas exchange", "setting": "[4]; doses up to 90 μg TRE", "result": "not affected"}, {"measurement": "effects on systemic arterial pressure", "setting": "[4]; even at the highest doses", "result": "only minor effects"}, {"measurement": "taste of the aerosol", "setting": "[4]; [5]", "result": "bad taste of the TRE aerosol was reported by most patients"}, {"measurement": "tolerated inhaled dose", "setting": "[4]; single inhalation", "result": "up to 90 μg"}]}]}
